From ChEMBL document CHEMBL1147351, “Sesquiterpenoids and norsesquiterpenoids from the soft coral Lemnalia africana” (J Nat Prod, 1993)
Activity calls are given as the source filed them. No cut-off for these calls is given here.

What was measured:
P388 = assay: Cytotoxicity against mouse P388 cells at 1 ug/ml; type: functional, cell-based
[1] = Cytotoxicity against african green monkey CV1 cells; type: cell-based; conditions: chlorocebus aethiops, cv-1

**Q.** Which results are given for C[C@H]1CCC=C2CCC(C(C)(O)CO)=C[C@@]21C (some centres not stated)?
**A.** Activity (P388): Active; Activity [1]: 10 µg/mL
